The source made the active and inactive calls. No cut-off for these calls is given here.
Key:
[1] = Drug uptake in human K562 cells assessed as membrane permeability by measuring increase in fluorescence intensity at 5 umol/L incubated for 2 hrs by flow cytometry relative to THP-1 cells; type: ADME, cell-based; conditions: k562, 2 h, 5 µM, dose 5 µmol/L
[2] = Drug uptake in human KU812 cells assessed as increase in fluorescence intensity at 1 to 10 uM incubated for 2 hrs by flow cytometry; type: ADME, cell-based; conditions: ku812, 2 h, dose 1-10 µM
[3] = Drug uptake in human CCRF-CEM cells assessed as increase in fluorescence intensity at 5 umol/L measured for 5 to 240 mins by flow cytometry; type: ADME, cell-based; conditions: 5 µM, TDE = time-dependent effect, time 5-240 min, dose 5 µmol/L
[4] = Drug uptake in human CCRF-CEM cells assessed as perinuclear distribution and colocalization with nucleus at 10 umol/L incubated for 2 hrs by confocal laser microscopy; type: ADME, cell-based; conditions: 10 µM, dose 10 µmol/L
[5] = Stability of the compound in fetal bovine serum assessed as parent compound remaining measured after 36 hrs by HPLC-MS analysis; type: ADME, cell-free, Bos taurus; conditions: cattle, read-out: Stability
[6] = tested on: K562; test: Potentiation of IMA-PROTAC-induced cytotoxicity against human K562 cells assessed as inhibition of cell growth at compound: IMA-PROTAC concentration ratio of 5:1 incubated for 48 hrs in presence of 3 umo/L IMA-PROTAC by MTT assay; type: functional, cell-based
[7] = tested on: K562; test: Increase in membrane permeability of IMA-PROTAC in human K562 cells assessed as potentiation of IMA-PROTAC-induced Bcr-Abl degradation at PROTAC to compound concentration ratio of 1:3 incubated for 48 hrs in presence of 3 umol/L IMA-PROTAC by western blot analysis; type: functional, cell-based
[8] = Increase in membrane permeation of IMA-PROTAC in human K562 cells assessed as increase in intracellular content of IMA-PROTAC incubated for 3 hrs by HPLC-MRM-MS analysis relative to control; type: functional

fold change (FC) [1]: 8.8 | Drug uptake [2]: Dose-Dependent Effect | Drug uptake [3]: Tde | Drug uptake [4]: Active | remaining at 36 h [5]: 55%
SMILES: CC(C)C[C@H](NC(=O)[C@H](Cc1csc2ccccc12)NC(=O)[C@@H](Cc1ccccc1)NC(=O)[C@H](Cc1ccccc1)NC(=O)CNC(=O)[C@@H](N)CS)C(=O)N[C@@H](CCCNC(=N)N)C(=O)N[C@@H](CO)C(=O)N[C@@H](CS)C(=O)O
Activity [6]: inactive | Activity [7]: Active | fold change (FC) [8]: 1.72

Reference: ChEMBL document CHEMBL6071133, “Discovery of novel penetrating peptides able to target human leukemia and lymphoma for enhanced PROTAC delivery” (Eur J Med Chem, 2024)
